Structures can show the parent of a compound that is named as a salt. Where two headings read alike, the source gives them in different places.
What was measured:
human CYP 2D6 = target: T1, human CYP 2D6 (Homo sapiens, UniProt P10635); experiment: CYP inhibition assay, CYP 2D6; type: in vitro ADME
T1 construct: Mixture of 180 μL of 20 mg/mL HLM and 90 μL of substrate cocktail solution; from tissue; host or cells: human liver microsomes (HLM)
Procedure: (§1) This study was conducted using specific substrates for 5 major human CYP isozymes. These substrates were used as a cocktail (phenacetin, diclofenac, S-mephenytoin, bufuralol and midazolam which are predominantly metabolised by CYP 1A2, 2C9, 2C19, 2D6 and 3A4/5, respectively) at concentrations equivalent to their respective Km values. LC-MS-MS (MRM mode) was used to follow the formation of the CYP specific metabolites. A decrease in the formation of the metabolites in peak area to vehicle control was used to calculate the IC50 value. […] Test compound was used at 6 different concentrations ([…]) to estimate IC50.
(§2) The incubation was carried out in 96 deep well plates. Mixture of 180 μL of 20 mg/mL HLM and 90 μL of substrate cocktail solution was added to 15840 μL of phosphate buffer and 179 μL of this mixture was mixed with 1 μL of the test compound, inhibitor cocktail solution or vehicle in each well. The final concentration of DMSO:ACN in the assay mix was 0.3:0.7% v/v. The incubation plate was placed into the water bath and pre-warmed at 37° C. for 5 min before the reactions were started by the addition of 20 μL of 10 mmol/L NADPH solution in phosphate buffer. After the addition of NADPH, the incubation plate was incubated at 37° C. for a further 5 min. The reaction was quenched by the addition of 1 volume (200 μL) of cold ACN containing 3% formic acid and 40 nmol/L verapamil. The plates were kept on ice for 20 min and then centrifuged at 4000 rpm for 30 min to precipitate protein. The supernatant 180 μL was transferred to the analysis plate for LC/MS/MS analysis.

human CYP 2C19 = target: T2, human CYP 2C19 (Homo sapiens, UniProt P33261); experiment: Time dependent CYP inhibition assay, CYP 2C19; type: in vitro ADME
T2 construct: Mixture of 180 μL of 20 mg/mL HLM and 90 μL of substrate cocktail solution; from tissue; host or cells: human liver microsomes (HLM)

[1] = Blood:Plasma (BP) ratio, rat; type: in vitro ADME
[2] = Blood:Plasma (BP) ratio, human; type: in vitro ADME
CYP3A4 = CYP3A4 (Homo sapiens, UniProt P08684); experiment: Time dependent CYP inhibition assay, CYP 3A4; type: in vitro ADME
[3] = Prediction of human PK parameters (well stirred model); conditions: from human hepatocyte Clint and fu
From the text: Prediction of Human Pharmacokinetic (PK) Parameters Well stirred model was used for predicting human CL using human hepatocyte Clint and free fraction (fu) in human plasma. Liver blood flow rates, liver weights, hepatocellularity and in vitro in vivo correlation/extrapolation (IVIVC/E) templates routinely employed (Smith et al., Pharmacokinetics and Metabolism in Drug Design, Methods and Principles in Medicinal Chemistry Volume 13, 2004, Wiley-VCH, Weinheim, Germany) were used for prediction.

hepatocytes = experiment: Metabolic stability assay (hepatocyte Clint), human; type: in vitro ADME; conditions: 1 μM compound
Procedure: Metabolic Stability Assay (Rat/Human Hepatocyte Clint)
Viability of cryopreserved hepatocytes was determined using trypan blue and the cell concentration was adjusted to 10^6 cells per mL with Leibovitz L-15 Buffer. 1 μM compound (in Acetonitrile; 0.01% DMSO) was incubated with 500 μL of hepatocytes (1 million cells per mL) in a NUNC plate. Reaction was stopped at different time points (0, 5, 15, 30, 60, 90 and 120 min) by addition of 3 volumes of chilled acetonitrile to 100 μL of reaction mixture and centrifuged at 4° C. for 15 min. Supernatants were analyzed using LC-MS/MS for substrate depletion.

[4] = tested on: chloroquine-resistant K1 strain of P. falciparum; experiment: In vitro antiplasmodial activity (SYBR I), K1 strain; type: cell-based, Plasmodium falciparum; conditions: Plasmodium falciparum
Procedure: Measuring In Vitro Antiplasmodial Activity
The test samples were tested in duplicate on two separate occasions against chloroquine sensitive NF54 (MRA-1000, MR4, ATCC, Manassas, Va.) and chloroquine-resistant K1 strains of P. falciparum. A modified method of Trager and Jensen was employed to maintain continuous in vitro cultures of asexual blood stages of P. falciparum (Trageret al., 1976, Science, 193, 673-675). Quantitative assessment of antiplasmodial activity in vitro was determined using the SYBR I method as described earlier (Johnson et al., 2007, Antimicrob. Agents Chemother., 51, 1926-1933).
The percent inhibition with respect to the drug-free control was plotted against the logarithm of drug concentration. The growth inhibition curves were fitted by nonlinear regression using the sigmoidal dose-response (variable slope) formula to yield the concentration-response curves. […] Chloroquine diphosphate (CQ) (Sigma), artesunate (Sigma), and pyrimethamine were used as reference drugs in all experiments.

human CYP 2C9 = human CYP 2C9 (Homo sapiens, UniProt P11712); experiment: Time dependent CYP inhibition assay, CYP 2C9; type: in vitro ADME
[5] = Prediction of hepatic blood clearance (well stirred model), rat
Plasmodium berghei = experiment: In vivo efficacy in the mouse malaria model (four day suppressive test); conditions: P. berghei infected mice, growth of parasites in blood
Procedure: In Vivo Efficacy in the Mouse Malaria Model In vivo efficacy against blood stages was measured in mice infected with Plasmodium berghei after four (once daily) days of dosing by oral route. Detailed protocol for this four day suppressive test is described in Fidock et al 2004, Nature Reviews Drug Discovery (3), p 509.

human CYP 1A2 = target: T3, human CYP 1A2 (Homo sapiens, UniProt P05177); experiment: CYP inhibition assay, CYP 1A2; type: in vitro ADME
T3 sequence (P05177 1-516): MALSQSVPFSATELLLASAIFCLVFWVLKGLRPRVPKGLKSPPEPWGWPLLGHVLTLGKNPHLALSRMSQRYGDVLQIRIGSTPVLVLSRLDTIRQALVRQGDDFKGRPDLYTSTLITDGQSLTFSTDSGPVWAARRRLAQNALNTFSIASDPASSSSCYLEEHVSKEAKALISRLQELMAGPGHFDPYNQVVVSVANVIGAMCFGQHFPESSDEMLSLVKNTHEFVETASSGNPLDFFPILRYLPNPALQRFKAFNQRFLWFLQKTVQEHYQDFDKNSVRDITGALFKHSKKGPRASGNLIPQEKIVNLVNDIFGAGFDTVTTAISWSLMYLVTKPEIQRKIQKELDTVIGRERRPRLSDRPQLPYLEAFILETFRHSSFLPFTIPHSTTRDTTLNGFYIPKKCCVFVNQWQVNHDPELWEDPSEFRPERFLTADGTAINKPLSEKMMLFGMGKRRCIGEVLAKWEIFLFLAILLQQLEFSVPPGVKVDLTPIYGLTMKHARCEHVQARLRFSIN
Procedure: as §1, §2

[6] = 3 mg/kg oral once daily for four days
[7] = 10 mg/kg oral once daily for four days
[8] = 30 mg/kg oral once daily for four days
[9] = human liver microsomes, substrate cocktail, read-out: IC50 CYP 2D6
[10] = K1 strain, chloroquine-resistant, read-out: Pf IC50—K1
[11] = human liver microsomes, substrate cocktail, read-out: IC50 CYP 1A2

Chain of CYP3A4 (P08684 whole entry): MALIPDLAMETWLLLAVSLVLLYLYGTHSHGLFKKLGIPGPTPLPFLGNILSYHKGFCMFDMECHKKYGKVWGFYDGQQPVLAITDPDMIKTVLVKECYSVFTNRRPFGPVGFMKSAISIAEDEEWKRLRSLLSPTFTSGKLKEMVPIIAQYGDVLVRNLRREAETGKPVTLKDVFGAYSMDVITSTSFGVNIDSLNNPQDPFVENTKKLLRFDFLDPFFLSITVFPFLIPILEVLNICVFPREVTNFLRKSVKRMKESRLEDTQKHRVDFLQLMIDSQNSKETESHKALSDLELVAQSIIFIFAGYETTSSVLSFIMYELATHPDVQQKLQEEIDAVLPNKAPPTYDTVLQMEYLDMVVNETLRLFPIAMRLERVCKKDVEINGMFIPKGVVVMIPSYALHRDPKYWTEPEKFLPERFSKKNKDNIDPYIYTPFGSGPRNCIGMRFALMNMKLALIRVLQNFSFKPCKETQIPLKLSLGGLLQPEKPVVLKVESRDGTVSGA
T1 sequence (P10635 whole entry): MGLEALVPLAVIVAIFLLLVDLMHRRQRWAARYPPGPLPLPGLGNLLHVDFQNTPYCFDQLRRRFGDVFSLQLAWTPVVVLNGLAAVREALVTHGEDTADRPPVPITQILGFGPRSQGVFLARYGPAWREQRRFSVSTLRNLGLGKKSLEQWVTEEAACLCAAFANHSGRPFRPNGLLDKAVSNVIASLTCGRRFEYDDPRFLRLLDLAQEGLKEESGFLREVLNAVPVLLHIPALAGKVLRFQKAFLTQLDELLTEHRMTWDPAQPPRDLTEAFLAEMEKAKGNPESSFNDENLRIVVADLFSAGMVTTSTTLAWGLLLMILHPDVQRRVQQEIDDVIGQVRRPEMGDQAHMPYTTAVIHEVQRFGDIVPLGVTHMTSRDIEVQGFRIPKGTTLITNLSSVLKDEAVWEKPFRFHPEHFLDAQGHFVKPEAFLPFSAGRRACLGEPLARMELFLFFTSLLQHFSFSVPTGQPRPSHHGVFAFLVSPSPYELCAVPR
T2 sequence (P33261 whole entry): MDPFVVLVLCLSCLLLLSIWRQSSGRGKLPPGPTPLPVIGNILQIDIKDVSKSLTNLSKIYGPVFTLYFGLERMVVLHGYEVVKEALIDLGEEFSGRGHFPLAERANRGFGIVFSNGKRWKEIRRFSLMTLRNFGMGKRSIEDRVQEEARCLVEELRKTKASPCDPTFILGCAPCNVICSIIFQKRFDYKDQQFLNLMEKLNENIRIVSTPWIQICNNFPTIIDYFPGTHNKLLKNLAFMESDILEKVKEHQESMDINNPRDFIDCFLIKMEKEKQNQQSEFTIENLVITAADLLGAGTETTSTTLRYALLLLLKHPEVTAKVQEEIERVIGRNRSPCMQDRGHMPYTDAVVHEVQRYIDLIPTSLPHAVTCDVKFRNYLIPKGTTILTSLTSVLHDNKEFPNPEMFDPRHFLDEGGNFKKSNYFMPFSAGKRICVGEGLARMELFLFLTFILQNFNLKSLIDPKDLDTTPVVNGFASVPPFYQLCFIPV
Chain of human CYP 2C9 (P11712 whole entry): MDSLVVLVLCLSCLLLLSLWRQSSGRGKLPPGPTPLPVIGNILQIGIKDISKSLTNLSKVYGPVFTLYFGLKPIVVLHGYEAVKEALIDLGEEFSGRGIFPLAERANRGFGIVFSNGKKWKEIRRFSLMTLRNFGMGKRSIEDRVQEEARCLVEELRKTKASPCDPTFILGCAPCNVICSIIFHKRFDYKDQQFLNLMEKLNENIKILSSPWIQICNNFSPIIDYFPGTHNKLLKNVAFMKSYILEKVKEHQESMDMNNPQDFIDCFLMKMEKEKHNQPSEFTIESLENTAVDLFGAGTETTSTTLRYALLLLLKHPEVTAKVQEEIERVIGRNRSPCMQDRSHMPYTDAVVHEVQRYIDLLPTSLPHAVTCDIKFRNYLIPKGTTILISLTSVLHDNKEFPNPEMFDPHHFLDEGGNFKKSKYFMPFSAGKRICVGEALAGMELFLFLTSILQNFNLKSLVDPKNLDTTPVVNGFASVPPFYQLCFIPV

## CCc1cc(Nc2ncc(N3CCN[C@H](C)C3)c(Nc3cc(C)n(C)n3)n2)nc(C)c1F [Example 7, (R)—N4-(1,5-dimethyl-1H-pyrazol-3-yl)-N2-(4-ethyl-5-fluoro-6-methylpyridin-2-yl)-5-(3-methylpiperazin-1-yl)pyrimidine-2,4-diamine dihydrochloride]
Human CYP 2D6
  IC50: > 30 µM
Human CYP 2C19
  IC50: > 56 µM
[1]
  BP ratio: 2.2
[2]
  BP ratio: 1.3
CYP3A4
  IC50: > 56 µM
[3]
  Predicted CLh blood: 3.30 mL/min/kg
hepatocytes
  Hep. Clint: 2.7 μl/min/1E6
[4]; K1, read-out: Pf IC50—K1
  IC50: 0.045 µM
Human CYP 2C9
  IC50: > 56 µM
[5]
  Predicted CLh blood: 24.20 mL/min/kg
Plasmodium berghei; [6]
  % Inhibition: 6%
Plasmodium berghei; [7]
  % Inhibition: 28%
Plasmodium berghei; [8]
  % Inhibition: 100%
Human CYP 1A2
  IC50: > 30 µM

## Cc1nc(Nc2ncc(N3CCN[C@H](C)C3)c(Nc3cnn(C)n3)n2)cc(C2CC2)c1Cl [Example 10, (R)—N2-(5-chloro-4-cyclopropyl-6-methylpyridin-2-yl)-N4-(2-methyl-2H-1,2,3-triazol-4-yl)-5-(3-methylpiperazin-1-yl)pyrimidine-2,4-diamine dihydochloride]
Human CYP 2D6; [9]
  IC50: > 30 µM
Human CYP 2C19
  IC50: > 56 µM
[1]
  BP ratio: 1.7
[2]
  BP ratio: 1.8
CYP3A4
  IC50: > 56 µM
[3]
  Predicted CLh blood: 3.10 mL/min/kg
hepatocytes
  Hep. Clint: 1.8 μl/min/1E6
[4]; [10]
  IC50: 0.019 µM
Human CYP 2C9
  IC50: > 56 µM
[5]
  Predicted CLh blood: 16.10 mL/min/kg
Plasmodium berghei; [7]
  % Inhibition: 60%
Plasmodium berghei; 15 mg/kg oral once daily for four days
  % Inhibition: 75%
Plasmodium berghei; [8]
  % Inhibition: 100%
Human CYP 1A2; [11]
  IC50: > 30 µM

## Cc1nc(Nc2ncc(N3CCN(C)[C@H](C)C3)c(Nc3cc(C)n(C)n3)n2)cc(C2CC2)c1F [Example 13, (R)—N2-(4-cyclopropyl-5-fluoro-6-methylpyridin-2-yl)-N4-(1,5-dimethyl-1H-pyrazol-3-yl)-5-(3,4-dimethylpiperazin-1-yl)pyrimidine-2,4-diamine]
Human CYP 2D6; [9]
  IC50: > 30 µM
Human CYP 2C19
  IC50: > 56 µM
[1]
  BP ratio: 1.06
[2]
  BP ratio: 1.1
CYP3A4
  IC50: > 56 µM
[3]
  Predicted CLh blood: 4.80 mL/min/kg
hepatocytes
  Hep. Clint: 3.1 μl/min/1E6
[4]; [10]
  IC50: 0.015 µM
Human CYP 2C9
  IC50: > 56 µM
[5]
  Predicted CLh blood: 18.80 mL/min/kg
Plasmodium berghei; [6]
  % Inhibition: 0%
Plasmodium berghei; [7]
  % Inhibition: 42%
Plasmodium berghei; [8]
  % Inhibition: 100%
Human CYP 1A2; [11]
  IC50: > 30 µM
